# Measurements taken from US20250171448A1, “SOLID STATE FORMS OF GUSACITINIB” (TEVA PHARMACEUTICALS INTERNATIONAL GMBH, priority 2022, published 2025).
# Experiments:
# Assay type in all cases: physicochemical
# [1] = Storage stability at different relative humidity (XRPD after 7 days); details: ambient temperature; for XRPD analysis results 60% (7 days): polymorphic conversion: 60% relative humidity
# Procedure: Samples of Gusacitinib Forms: GS2, GS3, GS4 and Gusacitinib HCl salt Forms GHC11, GHC12, GHC18 were subjected to conditions of different relative humidity at ambient temperature. XRPD analysis was performed on the samples after 7 days.
# A sample of Form GHC13 of Gusacitinib HCl salt was subjected to 60% relative humidity for 7 days.
# [2] = Stability under tested stress conditions (grinding, pressure of 2 tons, humidity, temperature), summary statements; details: strong grinding; for stability under all tested stress conditions: high temperature up to 100° C.
# [3] = Grinding experiments (strong grinding and solvent drop grinding, XRPD)
# Procedure: Samples of Gusacitinib Forms: GS2, GS3, GS4 and Gusacitinib HCl salt Forms: GHC11, GHC12, GHC13, GHC18 were subjected to strong grinding, and to solvent drop grinding in isopropanol, ethanol and water. Grinding was carried out on the sample alone, or in the presence of the solvent. In these experiments, about 20 mg of the sample is placed in a mortar and ground with a pestle for 2 minutes. The solvent, when used, was added to the crystalline material before grinding, in a volume of 10 microlitres. XRPD analysis performed on the sample after the grinding experiment, confirmed no conversion of the starting material (Table 2): […]
# [4] = Thermal stability (heating up to 100° C. for 30 minutes, XRPD)
# Procedure: Samples of Gusacitinib Forms: GS2, GS3, GS4 and Gusacitinib HCl salt Forms GHC11, GHC12 and GHC18 were subjected to heating up to 100° C. for 30 minutes. XRPD analysis of the samples confirmed there to be no change in the starting material (Table 3): […]
smiles,measurement,setting,value
N#CCC1CCN(c2nc(Nc3ccc(N4CCC(O)CC4)cc3)c3c(=O)[nH]ncc3n2)CC1 [Form GHC11],XRPD analysis results 60% (7 days): polymorphic conversion,[1]; listed as GHCl1,No
same,stability under all tested stress conditions,[2]; high humidity up to 100% RH for 7 days,stable
N#CCC1CCN(c2nc(Nc3ccc(N4CCC(O)CC4)cc3)c3c(=O)[nH]ncc3n2)CC1 [Form GHC12],XRPD analysis results 60% (7 days): polymorphic conversion,[1]; listed as GHCl2,No
N#CCC1CCN(c2nc(Nc3ccc(N4CCC(O)CC4)cc3)c3c(=O)[nH]ncc3n2)CC1 [Form GHC13],XRPD analysis results 60% (7 days): polymorphic conversion,[1],no polymorphic conversion
same,stability under tested stress conditions,[2]; high humidity up to 60% RH for 7 days,stable
N#CCC1CCN(c2nc(Nc3ccc(N4CCC(O)CC4)cc3)c3c(=O)[nH]ncc3n2)CC1 [Form GHC18],XRPD analysis results 60% (7 days): polymorphic conversion,[1]; listed as GHCl8,No
"N#CCC1CCN(c2nc(Nc3ccc(N4CCC(O)CC4)cc3)c3c(=O)[nH]ncc3n2)CC1 [Form GS2, 2-[1-[4-[4-(4-hydroxypiperidin-1-yl)anilino]-5-oxo-6H-pyrimido[4,5-d]pyridazin-2-yl]piperidin-4-yl]acetonitrile]","XRPD analysis results, Solvent-drop grinding (ethanol)","[3]; about 20 mg ground 2 minutes, 10 microlitres ethanol",No polymorphic
same,"XRPD analysis results, Solvent-drop grinding (isopropyl alcohol)","[3]; about 20 mg ground 2 minutes, 10 microlitres isopropyl alcohol",No polymorphic
same,"XRPD analysis results, Solvent-drop grinding (water)","[3]; about 20 mg ground 2 minutes, 10 microlitres water",No polymorphic
same,"XRPD analysis results, Strong grinding","[3]; about 20 mg ground with mortar and pestle for 2 minutes, no solvent",No polymorphic
same,"Result, Heating 100° C., 30 minutes",[4],Stable
same,XRPD analysis results 60% (7 days): polymorphic conversion,[1]; listed as GS2,No
"N#CCC1CCN(c2nc(Nc3ccc(N4CCC(O)CC4)cc3)c3c(=O)[nH]ncc3n2)CC1 [Form GS3, 2-[1-[4-[4-(4-hydroxypiperidin-1-yl)anilino]-5-oxo-6H-pyrimido[4,5-d]pyridazin-2-yl]piperidin-4-yl]acetonitrile]",XRPD analysis results 60% (7 days): polymorphic conversion,[1]; listed as GS3,No
"N#CCC1CCN(c2nc(Nc3ccc(N4CCC(O)CC4)cc3)c3c(=O)[nH]ncc3n2)CC1 [Form GS4, 2-[1-[4-[4-(4-hydroxypiperidin-1-yl)anilino]-5-oxo-6H-pyrimido[4,5-d]pyridazin-2-yl]piperidin-4-yl]acetonitrile]",XRPD analysis results 60% (7 days): polymorphic conversion,[1]; listed as GS4,No
same,XRPD analysis results 80% (7 days): polymorphic conversion,[1]; 80% relative humidity,No
same,XRPD analysis results 100% (7 days): polymorphic conversion,[1]; 100% relative humidity,No
same,stability under all tested stress conditions,[2]; high humidity up to 80% RH for 7 days,stable
